For ten compounds, MIC and MCC results are on record in ChEMBL document CHEMBL1134637, “Fluorescent tricyclic analogues of acyclovir and ganciclovir. A structure-antiviral activity study” (2001).

Molecules are shown by their SMILES. Converted amounts (≈) assume the structure as drawn.

What all share (format): functional
Test [1] deals with Human alphaherpesvirus 1. The experiment in a line: Minimal inhibitory concentration to reduce virus-induced cytopathicity against F strain of human Herpes Simplex Virus-1 (HSV-1). The note with it: Human alphaherpesvirus 1; read-out: MIC. (Cytopathic effects are the visible damage that an infection or toxin causes in cultured cells.)
For test [2], the system named is Human alphaherpesvirus 1. The experiment in a line: Minimal inhibitory concentration to reduce virus-induced cytopathicity against TK-/TK+ HSV-1 of VMW 837.
Test [3] in a line: Minimal cytotoxic concentration (MCC) to cause a microscopically detectable change in normal cell morphology.
For the next test, the system named is Vaccinia virus. The test is described as follows: Minimal inhibitory concentration to reduce virus-induced cytopathicity against VV. The note with it: Orthopoxvirus vaccinia.
Test [4] has as its system Human alphaherpesvirus 1. The test is described as follows: Minimal inhibitory concentration to reduce virus-induced cytopathicity against KOS strain of human Herpes Simplex Virus -1.
Test [5] has as its system Human alphaherpesvirus 2. The test is described as follows: Minimal inhibitory concentration to reduce virus-induced cytopathicity against Lyons strain of human Herpes Simplex Virus-2.
In test [6] the test system is Human alphaherpesvirus 1. The experiment in a line: Minimal inhibitory concentration to reduce virus-induced cytopathicity against Thymidine kinase deficient(TK-) HSV-1 of Acyclovir.
The subject of test [7] is Human alphaherpesvirus 2. The test is described as follows: Minimal inhibitory concentration to reduce virus-induced cytopathicity against G strain of human Herpes Simplex Virus-2.
In test [8] the test system is Human alphaherpesvirus 2. The test is described as follows: Minimal inhibitory concentration to reduce virus-induced cytopathicity against 196 strain of human Herpes Simplex Virus-2.
The test system of test [9] is Human alphaherpesvirus 1. The test is described as follows: Minimal inhibitory concentration to reduce virus-induced cytopathicity against McIntyre strain of human Herpes Simplex Virus-1.
Test [10] deals with Vesicular stomatitis virus. The test is described as follows: Minimal inhibitory concentration to reduce virus-induced cytopathicity against VSV.
The mark [11] stands for this setting: Human alphaherpesvirus 2, read-out: MIC.

Turning to `OCCOCn1cnc2c(O)n3c(CO)cnc3nc21`, the MIC with Human alphaherpesvirus 1 [1], in the test on Human alphaherpesvirus 1 [2], with Vaccinia virus, against Human alphaherpesvirus 1 [4], with Human alphaherpesvirus 2 [5] and in the test on Human alphaherpesvirus 1 [6] was above 3.2 µg/mL throughout. Moreover, the MIC (in the test with Human alphaherpesvirus 2 [7] (setting [11]); in the test on Human alphaherpesvirus 2 [8]; against Human alphaherpesvirus 1 [9]; in test [10]) was above 3.2 µg/mL throughout. Further, the MCC in [3] was above 16 µg/mL.
As for `O=[N+]([O-])c1ccc(-c2cn3c(O)c4ncn(COCCO)c4nc3n2)cc1`, the MIC is 16 µg/mL (≈ 43.2 µM) in the test with Human alphaherpesvirus 1 [1]; above 16 µg/mL against Human alphaherpesvirus 1 [2]; above 16 µg/mL against Vaccinia virus; 9.6 µg/mL (≈ 25.9 µM) in the test with Human alphaherpesvirus 1 [4]; above 16 µg/mL against Human alphaherpesvirus 2 [5]; above 16 µg/mL in the test with Human alphaherpesvirus 1 [6]. The MIC was 9.6 µg/mL (≈ 25.9 µM) with Human alphaherpesvirus 2 [7] (setting [11]), above 16 µg/mL in the test on Human alphaherpesvirus 2 [8], 16 µg/mL (≈ 43.2 µM) in the test on Human alphaherpesvirus 1 [9] and above 16 µg/mL in test [10]. This compound displayed an MCC in [3] of 80 µg/mL.
As to `Cc1ccc(-c2cn3c(O)c4ncn(COCCO)c4nc3n2)cc1`, the MIC with Human alphaherpesvirus 1 [1] was 0.07 µg/mL (≈ 0.206 µM); in the test on Human alphaherpesvirus 1 [2], 82 µg/mL (≈ 242 µM); against Vaccinia virus, above 40 µg/mL; in the test on Human alphaherpesvirus 1 [4], 0.43 µg/mL (≈ 1.27 µM); in the test on Human alphaherpesvirus 2 [5], 0.4 µg/mL (≈ 1.18 µM); in the test on Human alphaherpesvirus 1 [6], 9.2 µg/mL (≈ 27.1 µM). For the same compound, the MIC in the test with Human alphaherpesvirus 2 [7] (setting [11]) is 0.93 µg/mL (≈ 2.74 µM); against Human alphaherpesvirus 2 [8], 0.2 µg/mL (≈ 0.589 µM); against Human alphaherpesvirus 1 [9], 0.07 µg/mL (≈ 0.206 µM); in [10], above 40 µg/mL. Further, the MCC in [3] was found to be 250 µg/mL.
Turning to `COc1ccc(-c2cn3c(O)c4ncn(COCCO)c4nc3n2)c(OC)c1`, the MIC with Human alphaherpesvirus 1 [1] was 1.92 µg/mL (≈ 4.98 µM); in the test with Human alphaherpesvirus 1 [2], 1.92 µg/mL (≈ 4.98 µM); in the test on Vaccinia virus, 16 µg/mL (≈ 41.5 µM); with Human alphaherpesvirus 1 [4], 1.92 µg/mL (≈ 4.98 µM); in the test on Human alphaherpesvirus 2 [5], 1.92 µg/mL (≈ 4.98 µM); against Human alphaherpesvirus 1 [6], above 16 µg/mL. Moreover, the MIC was 3.2 µg/mL (≈ 8.3 µM) with Human alphaherpesvirus 2 [7] (setting [11]), 1.92 µg/mL (≈ 4.98 µM) with Human alphaherpesvirus 2 [8], 1.92 µg/mL (≈ 4.98 µM) in the test on Human alphaherpesvirus 1 [9] and 16 µg/mL (≈ 41.5 µM) in [10]. The MCC in test [3] came to 80 µg/mL.
Consider `Cc1nc2nc3c(ncn3COCCO[Si](C)(C)C(C)(C)C)c(O)n2c1C(c1ccccc1)(c1ccccc1)c1ccccc1`, for which the MIC with Human alphaherpesvirus 1 [2] is above 10 µg/mL; with Vaccinia virus, 2 µg/mL (≈ 3.23 µM); in the test on Human alphaherpesvirus 1 [4] it was above 10 µg/mL; against Human alphaherpesvirus 1 [6], above 10 µg/mL; in the test on Human alphaherpesvirus 2 [7] (setting [11]), above 10 µg/mL; in [10], above 10 µg/mL. The same compound returned an MCC in test [3] of 40 µg/mL.
Regarding `O=c1c2ncn(COCCO)c2nc2n(Cc3ccccc3)c(-c3ccccc3)cn12`, the MIC (with Human alphaherpesvirus 1 [2]; in the test with Vaccinia virus; with Human alphaherpesvirus 1 [4]; against Human alphaherpesvirus 1 [6]; against Human alphaherpesvirus 2 [7]; in test [10]) was above 100 µg/mL each time. This compound also gave an MCC in test [3] above 100 µg/mL.
On to `COc1ccc(-c2cn3c(O)c4ncn(COCCO)c4nc3n2)cc1`, for which the MIC was 0.07 µg/mL (≈ 0.197 µM) in the test with Human alphaherpesvirus 1 [1]; 21 µg/mL (≈ 59.1 µM) against Human alphaherpesvirus 1 [2]; above 40 µg/mL in the test on Vaccinia virus; 0.1 µg/mL (≈ 0.281 µM) against Human alphaherpesvirus 1 [4]; 0.2 µg/mL (≈ 0.563 µM) against Human alphaherpesvirus 2 [5]; 5.9 µg/mL (≈ 16.6 µM) in the test on Human alphaherpesvirus 1 [6]. For the same compound, the MIC was 0.15 µg/mL (≈ 0.422 µM) in the test with Human alphaherpesvirus 2 [7] (setting [11]), 0.2 µg/mL (≈ 0.563 µM) in the test on Human alphaherpesvirus 2 [8], 0.03 µg/mL (≈ 0.0844 µM) against Human alphaherpesvirus 1 [9] and above 40 µg/mL in test [10]. The compound also came in with an MCC in test [3] of 150 µg/mL.
Consider `COc1ccccc1-c1cn2c(O)c3ncn(COCCO)c3nc2n1`, for which the MIC in the test on Human alphaherpesvirus 1 [1] is 1.92 µg/mL (≈ 5.4 µM); against Human alphaherpesvirus 1 [2] it was 9.6 µg/mL (≈ 27 µM); in the test with Vaccinia virus, above 80 µg/mL; against Human alphaherpesvirus 1 [4], 1.92 µg/mL (≈ 5.4 µM); with Human alphaherpesvirus 2 [5], 9.6 µg/mL (≈ 27 µM); in the test with Human alphaherpesvirus 1 [6], above 80 µg/mL. The MIC in the test with Human alphaherpesvirus 2 [7] (setting [11]) is 1.92 µg/mL (≈ 5.4 µM); in the test with Human alphaherpesvirus 2 [8], 9.6 µg/mL (≈ 27 µM); against Human alphaherpesvirus 1 [9], 1.92 µg/mL (≈ 5.4 µM); in test [10], above 80 µg/mL. In test [3], this compound gave an MCC of 400 µg/mL.
As to `OCCOCn1cnc2c(O)n3cc(-c4ccccc4)nc3nc21`, the MIC in the test with Human alphaherpesvirus 1 [1] was 0.7 µg/mL (≈ 2.15 µM); against Human alphaherpesvirus 1 [2] it was above 70 µg/mL; with Vaccinia virus it was above 100 µg/mL; against Human alphaherpesvirus 1 [4], 0.4 µg/mL (≈ 1.23 µM); with Human alphaherpesvirus 2 [5], 0.7 µg/mL (≈ 2.15 µM); in the test with Human alphaherpesvirus 2 [7] (setting [11]) it was 1.3 µg/mL (≈ 4 µM). Moreover, the values for the MIC (against Human alphaherpesvirus 2 [8]; against Human alphaherpesvirus 1 [9]; in test [10]) were 0.2 µg/mL (≈ 0.615 µM), 0.2 µg/mL (≈ 0.615 µM) and above 100 µg/mL, respectively. The compound further yielded an MCC in test [3] above 100 µg/mL.
For the compound `Cc1c(-c2ccccc2)nc2nc3c(ncn3COC(CO)CO)c(O)n12`, the MIC in the test on Human alphaherpesvirus 1 [1] was 0.005 µg/mL (≈ 0.0135 µM); against Human alphaherpesvirus 1 [2], 0.02 µg/mL (≈ 0.0541 µM); against Vaccinia virus, above 400 µg/mL; in the test with Human alphaherpesvirus 1 [4], 0.02 µg/mL (≈ 0.0541 µM); against Human alphaherpesvirus 2 [5], 0.02 µg/mL (≈ 0.0541 µM); in the test on Human alphaherpesvirus 1 [6], 3.2 µg/mL (≈ 8.66 µM). Also, the MIC in the test on Human alphaherpesvirus 2 [7] (setting [11]) was 0.03 µg/mL (≈ 0.0812 µM); in the test on Human alphaherpesvirus 2 [8], 0.005 µg/mL (≈ 0.0135 µM); against Human alphaherpesvirus 1 [9], 0.005 µg/mL (≈ 0.0135 µM); in [10], above 240 µg/mL. The same compound showed an MCC in test [3] above 400 µg/mL.
